Reference: article PMC5154195, “Ester-Modified Cyclometalated Iridium(III) Complexes as Mitochondria-Targeting Anticancer Agents” (Scientific Reports, 2016)

What was measured:
[1] = system: A549 (human lung adenocarcinoma epithelial) cells; experiment: MTT cell viability assay, A549; format: cell-based; details: 44 h + 4 h MTT, read-out: IC50 (50% inhibition of cell viability)
Procedure: (§1) HeLa, A549, A549R, MCF-7 and HepG2 cells were obtained from Experimental Animal Centre of Sun Yat-Sen University (Guangzhou, China). Cells were cultured in DMEM (Dulbecco’s modified Eagle’s medium, Gibco BRL) or RPMI 1640 (Roswell Park Memorial Institute 1640, Gibco BRL) medium, containing 10% FBS (fetal bovine serum, Gibco BRL), 100 μg/mL streptomycin and 100 U/mL penicillin (Gibco BRL).
(§2) The cytotoxicity of the tested complexes towards different cell lines was determined by MTT assay. Cells were cultured in 96-well plates for 24 h. Cells were incubated with a series of concentrations of complexes for another 44 h. 20 μL MTT solution (5 mg/mL) was added into each well and incubated for another 4 h. Then culture media was removed and 150 μL DMSO was added into each well. The plate was shaken for 10 min. The absorbance at 595 nm was measured by a microplate reader.

[2] = system: MCF-7 (human breast adenocarcinoma) cells; experiment: MTT cell viability assay, MCF-7; format: cell-based; details: MCF-7, MTT, 44 h + 4 h MTT; read-out: IC50 (50% inhibition of cell viability)
Procedure: as §1, §2

[3] = system: A549R (cisplatin-resistant A549) cells; experiment: MTT cell viability assay, A549R; format: cell-based, human; details: 44 h + 4 h MTT, read-out: IC50 (50% inhibition of cell viability)
Procedure: as §1, §2

A549 cells [4] = experiment: Cellular uptake efficacy by ICP-MS; format: cell-based, human; details: 20 μM, 1 h
Procedure: It has been reported that cellular uptake efficacy of a compound is affected by many factors, such as lipophilicity, polarization and surface area[32]. As iridium is an exogenous element, its cellular uptake level can be quantitatively recorded by ICP-MS (inductively coupled plasma-mass spectrometry)[15]. A549 (human lung adenocarcinoma epithelial) cells were incubated with Ir(III) complexes (20 μM) for 1 h and analysed. Cell penetration capability of these complexes is correlated with the length of ester group and lipophilicity (Fig. 3B).
A549 cells were cultured in 60 mm dishes and incubated for 24 h. The medium was removed and replaced with medium-DMSO (99:1, v/v) containing Ir(III) complexes (20 μM). After 1 h incubation, cells were trypsined and collected in PBS. After counted by hemocytometer, cells were digested with HNO3 (65%, 300 μL) at room temperature for 24 h. The solution was diluted to a final volume of 10 mL with Milli-Q water containing 10 ppb In. The iridium content was measured by ICP-MS using In as the internal reference.

[5] = Lipophilicity (log Po/w), shake-flask method with ICP-MS; format: physicochemical; details: n-octanol/PBS
Procedure: According to the Lipinski’s rule, appropriate hydrophilicity and lipophilicity are of vital importance for drugs. Excessive hydrophilicity decreases penetration ability of a drug to cross phospholipid layer membrane. On the contrary, high lipophilicity means poor water solubility, which hinders biomedical applications. The lipophilicity, as represented by the log Po/w values, was determined by the shake-flask method according to a literature procedure. The log Po/w values of these Ir(III) complexes fall between −0.81 and 2.59 (Fig. 3A).
The lipophilicity (log Po/w) was determined by the flask-shaking method and analyzed by ICP-MS. Equal amounts of PBS and n-octanol were shaken in the oscillator for 24 h. The mixture was separated to obtain oil and water phases. The mixtures were centrifuged at 3000 × g for 5 min. Equal volumes of n-octanol and PBS were added to the supernatant. The mixtures were shaken for another 24 h, and then centrifuged at 3000 × g for 5 min. The oil and water phases were separated carefully and dried under vacuum. The dried sample was dissolved by HNO3 (65%, 300 μL) and diluted to a final volume of 10 mL with Milli-Q water containing 10 ppb In. The Ir(III) concentration (Co or Cw) was measured by ICP-MS using In as the internal reference. The Po/w value corresponds to Co/Cw.

[6] = system: HepG2 (human hepatocellular liver carcinoma) cells; experiment: MTT cell viability assay, HepG2; format: cell-based; details: 44 h + 4 h MTT, read-out: IC50 (50% inhibition of cell viability)
Procedure: as §1, §2

[7] = system: HeLa (human cervical cancer) cells; experiment: MTT cell viability assay, HeLa; format: cell-based; details: 44 h + 4 h MTT, read-out: IC50 (50% inhibition of cell viability)
Procedure: as §1, §2

[8] = system: all the cell lines tested (A549, A549R, HeLa, HepG2, MCF-7); experiment: Cytotoxicity across the cell line panel (MTT); format: cell-based, human
Procedure: The cytotoxicity was evaluated in A549, A549R (cisplatin-resistant A549), HeLa (human cervical cancer), HepG2 (human hepatocellular liver carcinoma) and MCF-7 (human breast adenocarcinoma) cells. Cisplatin was also tested as a positive control. Generally, the anti-proliferative efficacy of Ir(III) complexes is in the following order: 4a ≈ 4b > 5a ≈ 5b > 3b > 3a > 2b > 2a > 1a ≈ 1b, which corresponds to their lipophilicity and cellular uptake efficacy (Table 1). […] Complexes with longer ester substitutions (4a, 5a, 4b and 5b) show much higher cytotoxicity than the other complexes. […] For complexes 1a and 1b, converting the carboxyl acid groups into ester groups can facilitate cellular uptake and improve their anti-proliferative effects. As carboxyl groups are usually deprotonated at physiological pH, the phenomena may be partially attributed to the alteration of molecular charge from neutral/negative to positive under physiological conditions.
as §2, with “The plate was shaken for 10 min.” left out

[9] = system: porcine liver esterase (PLE); experiment: Hydrolysis by PLE in vitro (ESI-MS); format: in vitro ADME; details: 20 μM, 0.6 units PLE, Tris-HCl 10 mM pH 7.4, 2 h
Procedure: Ester-modified compounds have been used as prodrugs widely. They can be hydrolysed by a variety of esterases selectively or non-selectively, to release active pharmacophores. Herein, porcine liver esterase (PLE) was used as a model to investigate the hydrolytic process of the ester bonds in Ir(III) complexes. The hydrolysis of ten Ir(III) complexes by PLE were detected by ESI-MS (Supplementary Fig. S14)[28]. Equal amounts of Ir(III) complexes (20 μM, 100 μL) were incubated with PLE (0.6 units) in Tris-HCl solution (10 mM, pH 7.4) for 2 h. […] Other complexes with ester substituents show peaks assigned to intact complexes as well as peaks corresponding to hydrolytic products.
Ir(III) complexes (20 μM) were dissolved in freshly prepared Tris-HCl (10 mM, pH 7.4) buffer. Each sample contained 100 μL Ir(III) solution and 0.6 units PLE. After the samples were incubated at 298 K for 2 h, 400 μL acetone (253 K) was added into each sample to quench the enzymatic hydrolysis. Then the samples were centrifuged at 15000 × g for 10 min. The supernatant was collected and analyzed by ESI-MS.

A549 cells [10] = experiment: Inhibition of autophagy by 3-MA, MTT cell viability; format: cell-based, human; details: A549, 3-MA pre-treatment 1 h, 24 h
Procedure: Autophagy is a complicated biological process, which can play either pro-survival or pro-death roles in anticancer therapy. 3-methyladenine (3-MA), a specific class III PI3K inhibitor that can block autophagosome formation, was used to investigate the relationship between autophagy and anti-proliferative activities of 4a and 4b[51]. The anti-proliferative effects are diminished by pre-treatment of A549 cells with 3-MA (5 mM) for 1 h (Fig. 8F). Cell viabilities increase by approximately 1.09−fold and 1.13−fold for 4a (2 μM, 24 h) and 4b (2 μM, 24 h), respectively.
Cells were cultured in a 96-well plate and grown to confluence. Cells were pre-treated with or without 3-MA (5 mM) for 1 h, then incubated with the complexes at the indicated concentrations for 24 h. Cell viability was measured by MTT assay.

Structure (SMILES)	IC50 [1] [µM]	IC50 [2] [µM]	IC50 [3] [µM]	cellular uptake level / penetration ability (A549 cells [4])	Lipophilicity (log Po/w) [5]	IC50 [6] [µM]	IC50 [7] [µM]	cytotoxicity against all the cell lines tested [8]	hydrolysis of ester bonds by PLE (ESI-MS peaks) [9]	effect of 3-MA pre-treatment on induced cell death (A549 cells [10])
O=C([O-])c1cc[n+]2c(c1)-c1cc(C(=O)O)cc[n+]1[Ir-3]213([c]2ccccc2-c2cccc[n+]21)[c]1ccccc1-c1cccc[n+]13 [Complex 1a, Ir(ppy)2(Hdcbpy)]	> 100	> 100	> 100	lowest penetration ability	-0.81	> 100	> 100	inactive	remain unchanged	
N.N.[Cl][Pt][Cl] [cisplatin, reference compound]	23.7 ± 1	16.8 ± 1.5	79.4 ± 6.1			15.8 ± 1.2	25.1 ± 2.2			enhance cell death
O=C([O-])c1cc[n+]2c(c1)-c1cc(C(=O)O)cc[n+]1[Ir-3]213([c]2cc(F)cc(F)c2-c2cccc[n+]21)[c]1cc(F)cc(F)c1-c1cccc[n+]13 [Complex 1b, Ir(dfppy)2(Hdcbpy)]	> 100	> 100	> 100	lowest penetration ability	-0.49	> 100	> 100	inactive	remain unchanged	
